Measurements as given in patent US9687572B2, “PSMA-targeted dendrimers” (MOLECULAR INSIGHT PHARMACEUTICALS, INC., priority 2010, dated 2017).

Biological target: T1, PSMA (Homo sapiens, UniProt Q04609)
T1 construct: host or cells: LNCaP human prostate cancer cells
Assay: Competitive binding assay against [123I]-MIP-1072 on LNCaP cells
Details: FIG. 1
Procedure: The newly prepared analogs of the general structure 5 were screened in a human prostate cancer cell binding assay at a concentration of 3 nM using PSMA positive (+), LnCap cells.
Human prostate cancer cell line, LNCaP (PSMA positive) were obtained from the American Type Culture Collection (Rockville, Md.). LNCaP cells were maintained in RPMI-1640 medium (Invitrogen, Carlsbad, Calif.) supplemented with 10% fetal bovine serum (Hyclone, Logan, Utah) in a humidified incubator at 37° C./5% CO2. Cells were removed from flasks for passage or for transfer to 12-well assay plates by incubating them with 0.25% trypsin/EDTA (Invitrogen, Carlsbad, Calif.).
In a typical competitive binding assay, LNCaP cells were plated in 12-well plates at approximately 4×10^5 cells/well and incubated for 48 hours in a humidified incubator at 37° C./5% carbon dioxide prior to addition of PSMA inhibitors. The exemplary EDTA-PSMA tetramer MIP-1444 was diluted in serum-free cell culture medium containing 0.5% bovine serum albumin (BSA). Diluted MIP-1444 was added to the cells in the presence of 3 nM [^123I]-MIP-1072 for 1 hour at room temperature. Cells were removed from the plates by gently pipetting and transferred to 1.5 mL Eppendorff tubes. Samples were microcentrifuged for 30 seconds at 15K×g. […] Cell binding of [^123I]-MIP-1072 was determined by counting the cell pellet in a Wallac 1282 automated gamma counter. […]

T1 sequence (Q04609 whole entry): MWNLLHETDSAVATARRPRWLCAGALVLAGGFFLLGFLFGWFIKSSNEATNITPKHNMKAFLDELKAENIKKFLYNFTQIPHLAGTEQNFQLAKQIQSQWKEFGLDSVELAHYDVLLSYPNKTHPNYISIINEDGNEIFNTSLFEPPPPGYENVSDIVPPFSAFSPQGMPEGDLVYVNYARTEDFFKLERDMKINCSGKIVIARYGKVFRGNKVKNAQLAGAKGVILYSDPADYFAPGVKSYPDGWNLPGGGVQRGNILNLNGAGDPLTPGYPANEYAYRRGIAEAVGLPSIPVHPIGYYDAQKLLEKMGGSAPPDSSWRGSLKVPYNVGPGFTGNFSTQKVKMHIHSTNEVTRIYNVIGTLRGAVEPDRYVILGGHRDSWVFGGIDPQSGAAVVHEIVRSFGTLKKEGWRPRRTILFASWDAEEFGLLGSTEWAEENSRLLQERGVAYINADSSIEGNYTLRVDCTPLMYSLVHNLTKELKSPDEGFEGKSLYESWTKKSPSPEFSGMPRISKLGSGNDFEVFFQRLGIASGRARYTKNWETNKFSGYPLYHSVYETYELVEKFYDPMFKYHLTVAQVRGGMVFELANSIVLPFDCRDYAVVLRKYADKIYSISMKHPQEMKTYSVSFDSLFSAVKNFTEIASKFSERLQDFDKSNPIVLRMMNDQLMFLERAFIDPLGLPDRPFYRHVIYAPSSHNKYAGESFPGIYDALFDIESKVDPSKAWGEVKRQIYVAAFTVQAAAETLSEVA

NCCCC[C@H](NC(=O)N[C@@H](CCC(=O)O)C(=O)O)C(=O)O [MIP-1033]
IC50 value fold greater than the IC50 for the tetramer MIP-1444 (3 nM [123I]-MIP-1072, 1 hour at room temperature): 36 fold | affinity for PSMA (in words) (competitive binding curves): low affinity
